# Data: paper PMC10006169, “A phase I trial of LXS196, a protein kinase C (PKC) inhibitor, for metastatic uveal melanoma” (British Journal of Cancer, 2023)
# Test system: patients with MUM
# Experiment: Adverse events regardless of study drug relationship
# Assay type: in vivo, human
# Description: Routine safety assessments, including laboratory assessments, physical examinations, vital signs and electrocardiograms (ECGs), were conducted at regular intervals throughout the study and more frequently as needed following patient assessment by the treating physician. Adverse events (AEs) were assessed continuously according to the National Cancer Institute Common Terminology Criteria for Adverse Events (NCI-CTCAE) v4.03.
smiles,measurement,setting,value
CC1(N)CCN(c2cccnc2NC(=O)c2nc(-c3ncccc3C(F)(F)F)cnc2N)CC1 [LXS196],"ALT increased, all grades",100 mg QD,0 n (%)
same,"ALT increased, grade ≥3",100 mg QD,0 n (%)
same,"AST increased, all grades",100 mg QD,0 n (%)
same,"AST increased, grade ≥3",100 mg QD,0 n (%)
same,"Abdominal pain upper, all grades",100 mg QD,0 n (%)
same,"Abdominal pain upper, grade ≥3",100 mg QD,0 n (%)
same,"Asthenia, all grades",100 mg QD,0 n (%)
same,"Asthenia, grade ≥3",100 mg QD,0 n (%)
same,"Blood creatinine increased, all grades",100 mg QD,0 n (%)
same,"Blood creatinine increased, grade ≥3",100 mg QD,0 n (%)
same,"Constipation, all grades",100 mg QD,1 (33.3) n (%)
same,"Constipation, grade ≥3",100 mg QD,0 n (%)
same,"Decreased appetite, all grades",100 mg QD,0 n (%)
same,"Decreased appetite, grade ≥3",100 mg QD,0 n (%)
same,"Dermatitis acneiform, all grades",100 mg QD,0 n (%)
same,"Dermatitis acneiform, grade ≥3",100 mg QD,0 n (%)
same,"Diarrhoea, all grades",100 mg QD,2 (66.7) n (%)
same,"Diarrhoea, grade ≥3",100 mg QD,0 n (%)
same,"Dry skin, all grades",100 mg QD,0 n (%)
same,"Dry skin, grade ≥3",100 mg QD,0 n (%)
same,"Fatigue, all grades",100 mg QD,0 n (%)
same,"Fatigue, grade ≥3",100 mg QD,0 n (%)
same,"Hypotension, all grades",100 mg QD,0 n (%)
same,"Hypotension, grade ≥3",100 mg QD,0 n (%)
same,"Nasopharyngitis, all grades",100 mg QD,0 n (%)
same,"Nasopharyngitis, grade ≥3",100 mg QD,0 n (%)
same,"Nausea, all grades",100 mg QD,2 (66.7) n (%)
same,"Nausea, grade ≥3",100 mg QD,0 n (%)
same,"Neutropenia, all grades",100 mg QD,0 n (%)
same,"Neutropenia, grade ≥3",100 mg QD,0 n (%)
same,"Oedema peripheral, all grades",100 mg QD,1 (33.3) n (%)
same,"Oedema peripheral, grade ≥3",100 mg QD,0 n (%)
same,"Patients with ≥1 AE, all grades",100 mg QD,3 (100) n (%)
same,"Patients with ≥1 AE, grade ≥3",100 mg QD,0 n (%)
same,"Rash, all grades",100 mg QD,0 n (%)
same,"Rash, grade ≥3",100 mg QD,0 n (%)
same,"Vomiting, all grades",100 mg QD,2 (66.7) n (%)
same,"Vomiting, grade ≥3",100 mg QD,0 n (%)
same,"ALT increased, all grades",200 mg BID,1 (16.7) n (%)
same,"ALT increased, grade ≥3",200 mg BID,0 n (%)
same,"AST increased, all grades",200 mg BID,1 (16.7) n (%)
same,"AST increased, grade ≥3",200 mg BID,0 n (%)
same,"Abdominal pain upper, all grades",200 mg BID,0 n (%)
same,"Abdominal pain upper, grade ≥3",200 mg BID,0 n (%)
same,"Asthenia, all grades",200 mg BID,1 (16.7) n (%)
same,"Asthenia, grade ≥3",200 mg BID,0 n (%)
same,"Blood creatinine increased, all grades",200 mg BID,3 (50.0) n (%)
same,"Blood creatinine increased, grade ≥3",200 mg BID,0 n (%)
same,"Constipation, all grades",200 mg BID,1 (16.7) n (%)
same,"Constipation, grade ≥3",200 mg BID,0 n (%)
same,"Decreased appetite, all grades",200 mg BID,1 (16.7) n (%)
same,"Decreased appetite, grade ≥3",200 mg BID,0 n (%)
same,"Dermatitis acneiform, all grades",200 mg BID,1 (16.7) n (%)
same,"Dermatitis acneiform, grade ≥3",200 mg BID,0 n (%)
same,"Diarrhoea, all grades",200 mg BID,3 (50.0) n (%)
same,"Diarrhoea, grade ≥3",200 mg BID,0 n (%)
same,"Dry skin, all grades",200 mg BID,1 (16.7) n (%)
same,"Dry skin, grade ≥3",200 mg BID,0 n (%)
same,"Fatigue, all grades",200 mg BID,0 n (%)
same,"Fatigue, grade ≥3",200 mg BID,0 n (%)
same,"Hypotension, all grades",200 mg BID,0 n (%)
same,"Hypotension, grade ≥3",200 mg BID,0 n (%)
same,"Nasopharyngitis, all grades",200 mg BID,1 (16.7) n (%)
same,"Nasopharyngitis, grade ≥3",200 mg BID,0 n (%)
same,"Nausea, all grades",200 mg BID,3 (50.0) n (%)
same,"Nausea, grade ≥3",200 mg BID,0 n (%)
same,"Neutropenia, all grades",200 mg BID,1 (16.7) n (%)
same,"Neutropenia, grade ≥3",200 mg BID,0 n (%)
same,"Oedema peripheral, all grades",200 mg BID,2 (33.3) n (%)
same,"Oedema peripheral, grade ≥3",200 mg BID,0 n (%)
same,"Patients with ≥1 AE, all grades",200 mg BID,6 (100) n (%)
same,"Patients with ≥1 AE, grade ≥3",200 mg BID,3 (50.0) n (%)
same,"Rash, all grades",200 mg BID,0 n (%)
same,"Rash, grade ≥3",200 mg BID,0 n (%)
same,"Vomiting, all grades",200 mg BID,0 n (%)
same,"Vomiting, grade ≥3",200 mg BID,0 n (%)
same,"ALT increased, all grades",200 mg QD,1 (25.0) n (%)
same,"ALT increased, grade ≥3",200 mg QD,0 n (%)
same,"AST increased, all grades",200 mg QD,0 n (%)
same,"AST increased, grade ≥3",200 mg QD,0 n (%)
same,"Abdominal pain upper, all grades",200 mg QD,0 n (%)
same,"Abdominal pain upper, grade ≥3",200 mg QD,0 n (%)
same,"Asthenia, all grades",200 mg QD,1 (25.0) n (%)
same,"Asthenia, grade ≥3",200 mg QD,0 n (%)
same,"Blood creatinine increased, all grades",200 mg QD,1 (25.0) n (%)
same,"Blood creatinine increased, grade ≥3",200 mg QD,0 n (%)
same,"Constipation, all grades",200 mg QD,3 (75.0) n (%)
same,"Constipation, grade ≥3",200 mg QD,0 n (%)
same,"Decreased appetite, all grades",200 mg QD,1 (25.0) n (%)
same,"Decreased appetite, grade ≥3",200 mg QD,0 n (%)
same,"Dermatitis acneiform, all grades",200 mg QD,0 n (%)
same,"Dermatitis acneiform, grade ≥3",200 mg QD,0 n (%)
same,"Diarrhoea, all grades",200 mg QD,2 (50.0) n (%)
same,"Diarrhoea, grade ≥3",200 mg QD,0 n (%)
same,"Dry skin, all grades",200 mg QD,0 n (%)
same,"Dry skin, grade ≥3",200 mg QD,0 n (%)
same,"Fatigue, all grades",200 mg QD,0 n (%)
same,"Fatigue, grade ≥3",200 mg QD,0 n (%)
same,"Hypotension, all grades",200 mg QD,0 n (%)
same,"Hypotension, grade ≥3",200 mg QD,0 n (%)
same,"Nasopharyngitis, all grades",200 mg QD,0 n (%)
same,"Nasopharyngitis, grade ≥3",200 mg QD,0 n (%)
same,"Nausea, all grades",200 mg QD,2 (50.0) n (%)
same,"Nausea, grade ≥3",200 mg QD,1 (25.0) n (%)
same,"Neutropenia, all grades",200 mg QD,0 n (%)
same,"Neutropenia, grade ≥3",200 mg QD,0 n (%)
same,"Oedema peripheral, all grades",200 mg QD,1 (25.0) n (%)
same,"Oedema peripheral, grade ≥3",200 mg QD,0 n (%)
same,"Patients with ≥1 AE, all grades",200 mg QD,4 (100) n (%)
same,"Patients with ≥1 AE, grade ≥3",200 mg QD,3 (75.0) n (%)
same,"Rash, all grades",200 mg QD,0 n (%)
same,"Rash, grade ≥3",200 mg QD,0 n (%)
same,"Vomiting, all grades",200 mg QD,2 (50.0) n (%)
same,"Vomiting, grade ≥3",200 mg QD,1 (25.0) n (%)
